Source: US20240074473A1, “METHOD FOR INDUCING HYPERTROPHIC MUSCLE FIBERS FOR INDUSTRIAL MEAT PRODUCTION” (Yeda Research and Development Co. Ltd., priority 2021, published 2024)

Key:
[1] = tested on: primary mouse myoblasts; assay: Proliferation markers KI-67 and pH3 staining in primary mouse myoblasts; assay type: cell-based; details: 1 μM ERKi, 24 hours
Experimental: (§1) Immunofluorescence staining. First passage primary myoblasts isolated from various strains (indicated in figure legends) were plated in 96-well plates or chamber slides and treated as previously described. The cells were fixed with ice cold 4% PFA in PBS for 10 minutes, permeabilized with 0.5% Triton X-100 in PBS for 6 minutes, and blocked in PBS with 0.025% tween, 10% normal horse serum and 10% normal goat serum for 1 hour at room temperature. Primary antibody incubation was done in blocking buffer overnight at 4 degrees, with the following antibodies: Myosin Heavy Chain (MyHC, MF20, DSHB hybridoma supernatant 1:10, or MY-32 ABCAM ab51263 1:400), Myogenin (MYOG sc-13137 SCBT 1:200), pHistone 3 (PH3, ab47297 ABCAM 1:1000), Ki-67 (Cell Marque #275R), RYR (ab2868 ABCAM 1:100), and pCaMKII (SIGMA SAB4504356 1:100). Cells were washed 3 times in PBS with 0.025% tween and then incubated with appropriate secondary antibodies in PBS 1 hour. Where indicated, nuclei were either labeled with DAPI (SIGMA D9542, 5 ug/ml) or Hoechst 33342 (Thermo scientific #62249, 1:2000). Fixed cells at 24 hours post treatment with indicated inhibitors were imaged using the Nikon Eclipse Ti2 microscope (further described in microscopy section). All analysis was performed on at least 1000 nuclei. […]

[2] = tested on: ERK1/2 and RXR; assay: Co-immunoprecipitation of ERK1/2 and RXR in myoblasts; assay type: cell-based, mouse; details: 1 uM, 4 hours, nuclear lysates
Experimental: Co-immunoprecipitation (Co-IP). Primary myoblasts derived from gastrocnemius muscle were pooled from 10 mice and plated on 15 cm dishes and allowed to adhere for 24 hours. The following day, Bio-Amf2 media was replaced supplemented either with DMSO or 1 uM SCH772984. […] 1 mg of protein was used to immunoprecipitate ERK1/2 using 2 ug of ERK1/2Antibody (Sigma M7927). Rabbit IgG was used as a control. […] 1% of original volume of lysate loaded into IP reaction was loaded into the gel as input control. Membranes were blotted with RXR antibody (SCBT sc-553).

[3] = tested on: primary mouse myoblasts; assay: qRT-PCR gene expression in primary mouse myoblasts; assay type: cell-based
Experimental: Quantitative real-time PCR (qRT-PCR). Total RNA was isolated using Tri-Reagent (SIGMA) according to the manufacturer's instructions. cDNA was synthesized with the High Capacity cDNA Reverse Transcription Kit (Applied Biosystems according to the manufacturer's instructions. qRT-PCR was performed with SYBR green PCR Master Mix (Applied Biosystems) using the StepOnePlus Real-time PCR system (Applied Biosystems). Values for specific genes were normalize to either Gapdh or Hprt housekeeping control as indicated in Figure legend. Expression was calculated using the ddCT method.
First passage primary mouse derived myoblast were seeded in proliferation media, in equal number in 12-well tissue culture plates that were precoated with 10% Matrigel solution. Following 24 hours to allow for complete attachment, culture media was washed and replaced either with fresh proliferation media (PM), PM supplemented with 1 uM SCH 772984 (ERKi) or differentiation media (DM). After 24 hrs, cells were lysed and RNA was collected. Gene expression analysis was carried out using SYBR green qRT-PCR analysis.

[4] = tested on: primary mouse myoblasts; assay: Fusion index of primary mouse myoblasts (MyHC immunostaining); assay type: cell-based; details: first passage mouse primary myoblasts, 24 hours; 1 μM ERKi in growth medium vs. DM
Experimental: (§2) Isolation of and treatment of primary myoblasts. Primary mouse myoblasts were isolated from gastrocnemius muscle using trypsin-tissue dissociation. Briefly, muscle tissues were incubated in Trypsin B (0.25%, Biological Industries) and subjected to mechanical dissociation with a serological pipet. Supernatants were strained and centrifuged. Pellets were grown resuspended in BioAmf-2 media (Biological Industries, Israel) and plated on 10% Matrigel (BD Biosciences)-coated plates at 37° and 5% CO2. For all in vitro experiments, proliferation medium was Bio-Amf2 (Biological Industries, Israel) and Differentiation medium (DM) was DMEM 2% Horse Serum (HS) with 1% Pen/Strep. For fusion assays, cells were trypsinized with Trypsin C (0.05%, Biological Industries) and subjected to two rounds of preplating on uncoated plates to reduce the number of fibroblasts. Cells were plated at a density of 8×10^3 per well in 10% Matrigel-coated 96-well plates in proliferation medium for 24 hours. The following day, proliferation media was replaced either with proliferation media or with DM containing DMSO (Ctrl) or 1 μM ERK1/2 inhibitor (ERKi; SCH772984, Cayman Chemicals), […] RXR antagonist (RXRi; HX-531, Cayman Chemicals), […] Ryanodine receptor antagonist (RYRi; Dantrolene, Cayman Chemicals), 5 μM CaMKII inhibitor (CaMKIIi; KN93, Cayman Chemicals), or with DM for controls.
as §1
Quantification of fusion index. Following immunostaining and imaging, a fusion index was quantified by manually identifying nuclei found in a MyHC positive cell with at least 2 nuclei. Then the values were expressed as a percentage of the total nuclei per field. Briefly, in Figures where fusion index is stratified into subgroups of fiber size, the nuclei number in MyHC positive cell was manually quantified in a given field and stratified into groups of mononucleated, bi-nucleated myotubes, myotubes with 3-10 nuclei and myotubes with greater than 10 nuclei. […] Fields were analyzed hourly, and nuclei per cell was quantified and stratified into mononucleated, bi-nucleated, tri-nucleated and cells with ≥4 nuclei.

[5] = tested on: primary mouse myoblasts; assay: MYOG positive nuclei in primary mouse myoblasts (immunofluorescence); assay type: cell-based; details: 24 hours, ERKi in growth medium
Experimental: as §2
Immunofluorescence staining. First passage primary myoblasts isolated from various strains (indicated in figure legends) were plated in 96-well plates or chamber slides and treated as previously described. The cells were fixed with ice cold 4% PFA in PBS for 10 minutes, permeabilized with 0.5% Triton X-100 in PBS for 6 minutes, and blocked in PBS with 0.025% tween, 10% normal horse serum and 10% normal goat serum for 1 hour at room temperature. Primary antibody incubation was done in blocking buffer overnight at 4 degrees, with the following antibodies: Myosin Heavy Chain (MyHC, MF20, DSHB hybridoma supernatant 1:10, or MY-32 ABCAM ab51263 1:400), Myogenin (MYOG sc-13137 SCBT 1:200), pHistone 3 (PH3, ab47297 ABCAM 1:1000), Ki-67 (Cell Marque #275R), RYR (ab2868 ABCAM 1:100), and pCaMKII (SIGMA SAB4504356 1:100). Cells were washed 3 times in PBS with 0.025% tween and then incubated with appropriate secondary antibodies in PBS 1 hour. Where indicated, nuclei were either labeled with DAPI (SIGMA D9542, 5 ug/ml) or Hoechst 33342 (Thermo scientific #62249, 1:2000). Fixed cells at 24 hours post treatment with indicated inhibitors were imaged using the Nikon Eclipse Ti2 microscope (further described in microscopy section). All analysis was performed on at least 1000 nuclei. For fixed cells following the timecourse with ERKi or DM (FIG. 1B), images were captured with an inverted Olympus IX83 microscope (further details in microscopy section). All imaging analysis were performed on at least 1000 cells.

O=C(Nc1ccc2[nH]nc(-c3ccncc3)c2c1)[C@@H]1CCN(CC(=O)N2CCN(c3ccc(-c4ncccn4)cc3)CC2)C1 [SCH772984]
Cell cycle (KI-67 and phosphorylated Histone 3 staining) [1]: undergo cell-cycle arrest
RXR immunoprecipitated with ERK1/2 (interaction) [2]: attenuated
Expression of Ryr1, Ryr3, SERCA1/2, Orai and STIM ([3]; ERKi 24 hrs vs Ctrl): upregulated
Expression of differentiation and fusion factors MyoD, MyoG, Mymk, Mymx ([3]; ERKi in growth medium, time course): upregulated
Expression of maturation markers myosin heavy chain and troponin compared to DM ([3]; mouse myoblasts, 1 uM ERKi in PM, 24 hrs): stronger expression
Fusion index (fraction of nuclei in differentiated MyHC+ cells) [4]: 90.5%
Fraction of MYOG positive nuclei compared to DM [5]: significantly higher
